Each block holds one molecule with its values, some of them ahead of it.
Key:
[1] = Solution levels of terpenes in water (true solution by shear blending); assay type: physicochemical; details: maximum level solubilized in water by solution-forming shear blending
[2] = Baker's YP loading of different terpenes and terpene mixtures; assay type: physicochemical; parameters: key to Free Terpene: +: “free terpene” refers to the visible presence of terpene in the centrifuged reaction mixture; −: The absence of free terpene indicates complete absorption of the terpene by the particles; details: for Free Terpene: Baker's YP 250 mg/ml 500 μl; for Vol. Loaded μl: approximate maximal terpene loading in Baker's YP; for % Loaded w/w: maximal loading in Baker's YP, ratio of terpene loaded to particle present, weight for weight
Procedure: (§1) Increasing volumes of terpene emulsion were mixed with 250 mg/ml Baker's YP or 250 mg/ml SAF Mannan™ overnight at room temperature as shown in Tables 27 and 28. Samples were centrifuged at 14,000×g for 10 minutes and the appearance of free terpene floating on the aqueous layer was scored. The highest volume of terpene emulsion absorbed by Baker's YP or SAF Mannan™ as evidenced by the absence of free terpene was recorded as the volume of absorbed terpene emulsion. Colour of encapsulated terpenes in the pellet was recorded.
(§2) Percentage loaded represents a ratio of the amount of terpene loaded to the amount of particle present (weight for weight).

[3] = SAF Mannan loading of different terpenes and terpene mixtures; assay type: physicochemical; parameters: key to Free Terpene: +: “free terpene” refers to the visible presence of terpene in the centrifuged reaction mixture; −: The absence of free terpene indicates complete absorption of the terpene by the particles; key to Free Terpene: phase inversion remark: Inverted = Phase Inverted - solids floating on top - no free oil; W = white; Y = yellow; details: for Free Terpene: SAF Mannan 500 μl (250 mg/ml), overnight, room temperature; for Free Terpene: phase inversion remark: SAF Mannan 500 μl, second line of the Free Terpene cell; for Vol. loaded (maximal terpene loading in SAF Mannan): approximate maximal loading, volume of terpene emulsion absorbed by SAF Mannan; for % Loaded w/w (maximal terpene loading in SAF Mannan): ratio of amount of terpene loaded to amount of particle present (weight for weight)
Procedure: as §1, §2

[4] = Terpene stability: yellow colored oxidation product (colour of encapsulated terpene pellet); assay type: physicochemical; parameters: key to Colour: W = white; Y = yellow; sl = slight; int = intermediate
Procedure: Loading reactions were set up as shown in Table 25 and left to incubate overnight. Samples were centrifuged at 14,000×g for 10 minutes and the appearance of free terpene floating on the aqueous layer and the color of the encapsulated terpenes in the pellet was scored. The highest volume of terpene absorbed by particles as evidenced by the absence of free terpene was recorded as the volume of absorbed terpene emulsion. The reactions were incubated for 1, 3, 6, 9 and 24 hours at room temperature or 37° C. After incubation samples were centrifuged at 14,000×g for 10 minutes and the appearance of free terpene floating on the aqueous layer was scored. The highest volume of terpene absorbed by the particles as evidenced by the absence of free terpene was recorded as the volume of absorbed terpene emulsion. Colour of the encapsulated pellet was scored at 24 hours. Increasing volumes of terpene emulsion were mixed with 250 mg/ml Baker's YP or 250 mg/ml SAF Mannan™ overnight at room temperature as shown in Tables 27 and 28. Samples were centrifuged at 14,000×g for 10 minutes and the appearance of free terpene floating on the aqueous layer was scored. The highest volume of terpene emulsion absorbed by Baker's YP or SAF Mannan™ as evidenced by the absence of free terpene was recorded as the volume of absorbed terpene emulsion. Colour of encapsulated terpenes in the pellet was recorded.

root-knot nematodes = experiment: Nematicidal activity of high purity versus low purity citral; assay type: in vivo, root-knot nematode; details: average of four replicates
Procedure: Compositions of regular and technical ciral at 250 and 125 ppm were produced in 1% Tween 80 and incubated with root-knot nematodes a in the same way as previously described. Observations of the kill rate (percentage dead) were made at 21 and 42 hours.
The results are shown below in Table 13 and are the average of four replicates.

[5] = emulsion 15 μl, 1% Tween-80 485 μl
[6] = emulsion 37.5 μl, 1% Tween-80 462.5 μl
[7] = emulsion 75 μl, 1% Tween-80 425 μl
[8] = emulsion 150 μl, 1% Tween-80 350 μl
[9] = emulsion 225 μl, 1% Tween-80 275 μl
[10] = emulsion 450 μl, 1% Tween-80 50 μl
[11] = terpene emulsion vol 15, 1% Tween-80 485 μl
[12] = terpene emulsion vol 37.5, 1% Tween-80 462.5 μl
[13] = terpene emulsion vol 75, 1% Tween-80 425 μl
[14] = terpene emulsion vol 150, 1% Tween-80 350 μl
[15] = terpene emulsion vol 225, 1% Tween-80 275 μl
[16] = terpene emulsion vol 450, 1% Tween-80 50 μl
[17] = Table 27, Baker's YP, emulsion 15 μl
[18] = Table 27, Baker's YP, emulsion 37.5 μl
[19] = Table 27, Baker's YP, emulsion 75 μl
[20] = Table 27, Baker's YP, emulsion 112.5 μl
[21] = Table 27, Baker's YP, emulsion 150 μl
[22] = Table 27, Baker's YP, emulsion 225 μl
[23] = Table 27, Baker's YP, emulsion 450 μl
[24] = colour of encapsulated terpene in pellet, SAF Mannan 500 μl, terpene emulsion vol 15
[25] = colour of encapsulated terpene in pellet, SAF Mannan 500 μl, terpene emulsion vol 37.5
[26] = colour of encapsulated terpene in pellet, SAF Mannan 500 μl, terpene emulsion vol 75
[27] = colour of encapsulated terpene in pellet, SAF Mannan 500 μl, terpene emulsion vol 112.5
[28] = colour of encapsulated terpene in pellet, SAF Mannan 500 μl, terpene emulsion vol 150
[29] = colour of encapsulated terpene in pellet, SAF Mannan 500 μl, terpene emulsion vol 225
[30] = colour of encapsulated terpene in pellet, SAF Mannan 500 μl, terpene emulsion vol 450

Molecule: C=C(C)C1CC=C(C)C(=O)C1 (stereo not shown) [Carvone]
Solution Level [1]: 500 ppm

Molecule: CC(C)=CCCC(C)=CC=O [Citral (80% pure), citral]
average percentage dead (root-knot nematodes; 125 ppm in 1% Tween 80, 21 h): 29% | average percentage dead (root-knot nematodes; 125 ppm in 1% Tween 80, 42 h): 27% | average percentage dead (root-knot nematodes; 250 ppm in 1% Tween 80, 21 h): 89% | average percentage dead (root-knot nematodes; 250 ppm in 1% Tween 80, 42 h): 96%

Molecule: C=CCc1ccc(O)c(OC)c1 [Eugenol]
Free Terpene [2, 5]: − | Free Terpene [2, 6]: − | Free Terpene [2, 7]: − | Free Terpene [2, 8]: + | Free Terpene [2, 9]: + | Free Terpene [2, 10]: + | Vol. Loaded μl [2]: 75 µL | % Loaded w/w [2]: 67% w/w | Free Terpene [3, 11]: − | Free Terpene [3, 12]: − | Free Terpene [3, 13]: − | Free Terpene [3, 14]: + | Free Terpene [3, 15]: + | Free Terpene [3, 16]: + | Vol. loaded (maximal terpene loading in SAF Mannan) [3]: 112.5 µL | % Loaded w/w (maximal terpene loading in SAF Mannan) [3]: 100% w/w | Colour [4, 17]: W | Colour [4, 18]: W | Colour [4, 19]: W | Colour [4, 20]: W | Colour [4, 21]: W | Colour [4, 22]: W | Colour [4, 23]: W | Colour [4, 24]: W | Colour [4, 25]: W | Colour [4, 26]: W | Colour [4, 27]: W | Colour [4, 28]: W | Colour [4, 29]: W | Colour [4, 30]: W

Molecule: CC(C)=CCCC(C)=CC=O [Citral (98% pure), citral]
average percentage dead (root-knot nematodes; 125 ppm in 1% Tween 80, 21 h): 23% | average percentage dead (root-knot nematodes; 125 ppm in 1% Tween 80, 42 h): 22% | average percentage dead (root-knot nematodes; 250 ppm in 1% Tween 80, 21 h): 87% | average percentage dead (root-knot nematodes; 250 ppm in 1% Tween 80, 42 h): 87%

Continued, values first:

Solution Level [1]: 500 ppm | Free Terpene [2, 5]: − | Free Terpene [2, 6]: − | Free Terpene [2, 7]: − | Free Terpene ([2]; emulsion 112.5 μl, 1% Tween-80 387.5 μl): + | Free Terpene [2, 8]: + | Free Terpene [2, 9]: + | Free Terpene [2, 10]: + | Vol. Loaded μl [2]: 75 µL | % Loaded w/w [2]: 67% w/w | Free Terpene [3, 11]: − | Free Terpene [3, 12]: − | Free Terpene [3, 13]: − | Free Terpene ([3]; terpene emulsion vol 112.5, 1% Tween-80 387.5 μl): − | Free Terpene [3, 14]: − | Free Terpene [3, 15]: − | Free Terpene [3, 16]: + | Free Terpene: phase inversion remark ([3]; terpene emulsion vol 225): Inverted | Free Terpene: phase inversion remark ([3]; terpene emulsion vol 450): Inverted | Vol. loaded (maximal terpene loading in SAF Mannan) [3]: 150 µL | % Loaded w/w (maximal terpene loading in SAF Mannan) [3]: 133% w/w | Colour [4, 17]: W | Colour [4, 18]: W | Colour [4, 19]: W | Colour [4, 20]: W | Colour [4, 21]: W | Colour [4, 22]: W | Colour [4, 23]: W | Colour [4, 24]: W | Colour [4, 25]: W | Colour [4, 26]: W | Colour [4, 27]: W | Colour [4, 28]: W | Colour [4, 29]: W | Colour [4, 30]: W
Molecule: CC(C)=CCC/C(C)=C/CO [Geraniol]

Solution Level [1]: 500 ppm
Molecule: CC(=O)/C=C/C1=C(C)CCCC1(C)C [b-ionone]

Solution Level [1]: 500 ppm
Molecule: Terpeniol

Reference: patent publication US10729130B2, “Nematicidal compositions and methods of using them” (Eden Research plc, priority 2004, dated 2020)
